Structures can show the parent of a compound that is named as a salt. Where two headings read alike, the source gives them in different places.
Tests used:
B2 human receptor [1] = target: T1, B2 human receptor (Homo sapiens, UniProt P30411); assay: cell-based
T1 construct: expressed in transfected cells; host or cells: CHO cells
T1 sequence (P30411 1-391): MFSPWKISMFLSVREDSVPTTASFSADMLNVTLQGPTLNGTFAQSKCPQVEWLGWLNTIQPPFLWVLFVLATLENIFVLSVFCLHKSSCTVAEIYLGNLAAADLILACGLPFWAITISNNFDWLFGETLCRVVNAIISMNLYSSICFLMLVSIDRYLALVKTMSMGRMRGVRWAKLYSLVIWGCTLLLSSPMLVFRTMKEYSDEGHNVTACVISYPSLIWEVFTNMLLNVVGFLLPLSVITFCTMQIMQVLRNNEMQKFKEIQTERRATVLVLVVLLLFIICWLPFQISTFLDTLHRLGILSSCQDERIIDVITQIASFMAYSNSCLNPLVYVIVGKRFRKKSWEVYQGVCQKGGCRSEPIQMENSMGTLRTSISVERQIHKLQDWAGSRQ

BK-induced bronchospasm = assay: Inhibition of BK-induced bronchospasm in the guinea pig; type: in vivo; conditions: intratracheal dose which inhibited by 80% bronchial constriction for at least 210 min; for ED80: Cavia porcellus, inhaled or nasal, 3.5 h, read-out: it Dose
Protocol: The in vivo activity of the compounds of the present invention was evaluated as effectiveness in inhibiting BK-induced bronchospasm in the guinea pig (Tramontana, et al., J. Pharmacol. Exp. Therap. 296:1051-1057 (2001)), measuring the it dose (it=intratracheal administration) (in nmols/kg) which inhibited by 80% bronchial constriction for at least 210 min.

B2 human receptor [2] = target: T1, B2 human receptor; assay: Binding to the human B2 receptor expressed in CHO cells
[3] = antagonistic activity, bradykinin-induced inositol production, CHO cells transfected with B2 human receptor
[4] = human B2 receptor expressed in CHO cells
[5] = antagonistic activity, bradykinin-induced inositol production, CHO cells transfected with B2 human receptor, read-out: pA2 (converted)
[6] = human B2 receptor expressed in CHO cells, read-out: pKi (converted)

Row | Kb (B2 human receptor [1]; [5]) [nM] | Ki (B2 human receptor [2]; [6]) [nM] | Kb (B2 human receptor [1]) [nM] | Ki (B2 human receptor [2]) [nM] | Compound | pA2 (B2 human receptor [1]; [3]) | ED80 (BK-induced bronchospasm) [µmol/kg] | pKi (B2 human receptor [2]; [4]) | it Dose (BK-induced bronchospasm) [nmols/kg]
1 |  |  |  |  | Cc1cc(C)c2cccc(OCc3c(Cl)ccc(S(=O)(=O)NC4(C(=O)N5CCN(C(=O)[C@@H](N)CCC[N+](C)(C)C)CC5)CCOCC4)c3Cl)c2n1.Cl.Cl.[Cl-] [Example 1, (4-(S)-amino-5-(4-{4-[2,4-dichloro-3-(2,4-dimethyl-quinolin-8-yloxymethyl)-benzenesulfonylamino]tetrahydropyran-4-carbonyl}piperazin-1-yl)-5-oxo-pentyl]trimethyl-ammonium chloride, dihydrochloride] | 10.3 | 0.03 | 10.3 | 
2 | 0.2 | 0.0631 |  |  | Cc1ccc2cccc(OCc3c(Cl)ccc(S(=O)(=O)NC4(C(=O)N5CCN(C(=O)[C@@H](N)CCC[N+](C)(C)C)CC5)CCOCC4)c3Cl)c2n1 [Example 2, (4-(S)-Amino-5-(4-(4-(2,4-dichloro-3-(2-methyl-quinolin-8-yloxymethyl)-benzenesulfonylamino)tetrahydropyran-4-carbonyl)-piperazin-1-yl-)5-oxo-pentyl)-trimethylammonium chloride, hydrochloride] |  | 0.1 |  | 
3 |  |  |  |  | Cc1cc(C)c2cccc(OCc3c(Cl)ccc(S(=O)(=O)NC4(C(=O)N5CCN(C(=O)CCCC[N+](C)(C)C)CC5)CCOCC4)c3Cl)c2n1.O=C([O-])C(F)(F)F [Example 3, [5-(4-{4-[2,4-Dichloro-3-(2,4-dimethyl-quinolin-8-yloxymethyl)-benzene-sulfonylamino]tetrahydropyran-4-carbonyl}piperazin-1-yl)-5-oxo-pentyl]-trimethyl-ammonium trifluoroacetate.] | 9.5 |  | 10.1 | 100
4 |  |  | 1 |  | CCN=C(NCC)NCCCC(N)C(=O)N1CCN(C(=O)C2(NS(=O)(=O)c3ccc(Cl)c(COc4cccc5c(C)cc(C)nc45)c3Cl)CCCC2)CC1 (stereo not shown) [WO03103671 ex 44] |  | 0.3 |  | 
5 |  |  | 3.98 | 2 | Cc1ccc2cccc(OCc3c(Cl)ccc(S(=O)(=O)NC4(C(=O)N5CCN(C(=O)C(N)CCCNC(=N)N)CC5)CCCC4)c3Cl)c2n1 (stereo not shown) [WO03103671 ex 55] |  | 0.3 |  | 
6 |  |  | 5.01 | 1.58 | Cc1ccc2cccc(OCc3c(Cl)ccc(S(=O)(=O)NC4(C(=O)N5CCN(C(=O)C(N)CCCCN(C)C)CC5)CCCC4)c3Cl)c2n1 (stereo not shown) [WO03103671 ex 57] |  | 0.3 |  | 
7 | 1 | 1.58 |  |  | Cc1cc(C)c2cccc(OCc3c(Cl)ccc(S(=O)(=O)NC4(C(=O)N5CCN(C(=O)C(N)CCCCN(C)C)CC5)CCCC4)c3Cl)c2n1 (stereo not shown) [WO03103671 ex 59] |  | 0.3 |  | 
8 | 1.26 | 0.794 |  |  | Cc1cc(C)c2cccc(OCc3c(Cl)ccc(S(=O)(=O)NC4(C(=O)N5CCN(C(=O)C(N)CCCCN)CC5)CCCC4)c3Cl)c2n1 (stereo not shown) [WO03103671 ex 63] |  | 0.3 |  | 
9 |  |  | 6.31 | 0.2 | Cc1cc(C)c2cccc(OCc3c(Cl)ccc(S(=O)(=O)NC4(C(=O)N5CCN(C(=O)C(CCCC[N+](C)(C)C)[N+](C)(C)C)CC5)CCCC4)c3Cl)c2n1 (stereo not shown) [WO03103671 ex 88] |  |  |  | 

Row | Compound | Kb (B2 human receptor [1]; [5]) [nM] | Ki (B2 human receptor [2]; [6]) [nM] | Kb (B2 human receptor [1]) [nM] | Ki (B2 human receptor [2]) [nM] | pA2 (B2 human receptor [1]; [3]) | ED80 (BK-induced bronchospasm) [µmol/kg] | pKi (B2 human receptor [2]; [4]) | it Dose (BK-induced bronchospasm) [nmols/kg]
10 | Cc1cc(C)c2cccc(OCc3c(Cl)ccc(S(=O)(=O)NC4(C(=O)N5CCN(C(=O)[C@@H](N)CCC[N+](C)(C)C)CC5)CCCC4)c3Cl)c2n1 [Example 4, [4-(S)-Amino-5-(4-{1-[2,4-dichloro-3-(2,4-dimethyl-quinolin-8-yloxymethyl)-benzenesulfonylamino]cyclopentanecarbonyl}piperazin-1-yl)-5-oxo-pentyl]-trimethyl-ammonium chloride, dihydrochloride.] | 0.398 | 0.0794 |  |  |  | 0.1 |  | 

From US7645759B2, “Non-peptide bradykinin antagonists and pharmaceutical compositions therefrom” (Istituto Luso Farmaco D'Italia S.p.A., priority 2004, dated 2010)
